Blank lines part the entries; values can stand above or below the compound they belong to.
Experiments:
[1] = human, in vivo
Procedure: Thus the flow-controlled, slow inhalation at about 200 ml/sec enables maximum drug deposition in the target area of small airways. As further seen in FIG. 12, such inhalation method leads to an alveolar drug deposition of 40 to 50%. In contrast, alveolar deposition is below 10% when using a high inspiratory flow rate of 1000 ml/sec and a small inhalation volume of 350 ml, and it is 20-30% when using an inspiratory flow rate of 1000 ml/sec and an inhalation volume of 1800 ml. It is thus preferred to combine the controlled, slow flow rate of e.g. 200 ml/sec with higher inhalation volumes. As mentioned above, said inhalation volumes depend on the individual patient's lung function and the severity grade of the pulmonary disease, but in cooperation between physician and patient, a volume as high as is well tolerable for the patient can be chosen (see also Table 7).

[2] = after IV or inhalation administration; cited from earlier work
[3] = test system: oral steroid-dependent asthma subjects; conditions: nominal 4-8 mg daily, conventional nebulizer; cited from earlier work
[4] = Clinical trial: budesonide serum concentration analysis; type: in vivo, human; conditions: baseline to week 18; roughly 12 hours dosing interval
Procedure: For budesonide serum concentration analysis, blood was drawn in all four investigated groups either before inhalation or 30-60 minutes following inhalation at baseline (post-inhalation) and at week 18 (pre- and post-inhalation). Results are seen in FIG. 10.

asthma patients = conditions: cited from earlier work
[5] = test system: patients with severe chronic asthma; conditions: 500 or 1000 μg twice daily; cited from earlier work
[6] = test system: children with acute exacerbated asthma; conditions: nebulized; cited from earlier work
[7] = test system: patients with chronic oral dependent asthma; conditions: cited from earlier work
healthy volunteers = conditions: inhalation; cited from earlier work
chronic asthma = conditions: at half the daily dose of beclomethasone or budenoside; cited from earlier work
[8] = test system: asthma in adults and children; conditions: 2000 μg once a day, AKITA protocol; cited from earlier work
asthmatic children = conditions: 50 or 100 μg twice a day via dry powder inhaler; cited from earlier work

alveolar drug deposition [1]: 40-50% | accumulation of budesonide in serum [4]: did not accumulate in serum
Structure (SMILES): CCCC1O[C@@H]2C[C@H]3[C@@H]4CCC5=CC(=O)C=C[C@]5(C)[C@H]4[C@@H](O)C[C@]3(C)[C@]2(C(=O)CO)O1 (stereo partly drawn) [budesonide]
elimination half-life [2]: 2.2 to 4.5 h | subjects with side effects like oral thrush or disturbing sore throat [3]: 11%

Structure (SMILES): CCC(=O)O[C@]1(C(=O)SCF)[C@H](C)C[C@H]2[C@@H]3C[C@H](F)C4=CC(=O)C=C[C@]4(C)[C@@]3(F)[C@@H](O)C[C@@]21C [fluticasone propionate]
reduction of need for oral prednisolone (asthma patients; 2000 μg per day versus 1500 or 1000 μg/day): more likely to reduce a need for oral prednisolone | hoarseness and oral candidiasis (asthma patients; higher doses): significantly greater | adverse effects [5]: topical adverse effects associated with inhaled corticosteroids were observed | oral corticosteroid-sparing effect [5]: eliminated a need for oral prednisone | efficacy compared to oral prednisolone [6]: at least as effective as oral prednisolone | patients who discontinued the treatment ([7]; 4000 μg/day nebulized): 37% | reduction in the need for orally administered prednisone, 4000 μg versus 1000 μg per day ([7]; nebulized, bid): significantly greater | relative lung dose, large volume (750 ml) spacer versus nebulizer (healthy volunteers): sevenfold | adverse side effects (chronic asthma): higher risk of pharyngitis and other adverse side effects | effect on FEV1 (chronic asthma): improvement of forced expiratory volume in the first second (FEV1) | FEV1 improvement [8]: 17.1% | amount of administered dose that reached the central portion of the lungs (estimated) [8]: 500 to 700 µg | reduction in oral steroid use [8]: 33.2% | patients reporting adverse effects (asthmatic children): 51%
